Data reported in patent publication US9273011B2, “Substituted pyridazines for the treatment of pain” (INHIBITAXIN LIMITED, priority 2011, dated 2016).

What follows are molecules tested against human Autotaxin enzyme (Homo sapiens (Human), UniProt Q13822) (assay: Autotaxin FS-3 assay). Conditions: Autotaxin FS3 assay; human Autotaxin enzyme 2 nM; inhibition of FS-3 fluorescence; range and n in brackets.
Type: biochemical
Source text: Autotaxin (ATX) converts Lysophosphatidyl choline (LPC) to Lysophosphatidic acid (LPA) via its Lysophosphodiesterase (lysoPLD) activity. FS-3 is an LPC analogue that is conjugated with both a fluorophore and a quencher. In its native state the quencher interferes with the fluorophore's fluorescence. Once autotaxin cleaves FS-3, the fluorophore becomes liberated from the quencher, resulting in increased fluorescence. Thus increase in fluorescence is a measure of ATX activity. Any compound that inhibits the activity of Autotaxin will show less fluorescence read in presence of FS-3, which could be measured by fluorimetric analysis. See U.S. Pat. No. 7,989,663.
Autotaxin Inhibitor Screening Kits are available from Echelon Biosciences, Logan, Utah, USA [http://echelon-inc.com/, accessed 6 Oct. 2011]. Using the methods of Gierse et al [“A novel autotaxin inhibitor reduces lysophosphatidic acid levels in plasma and the site of inflammation”, Journal of Pharmacology and Experimental Therapeutics, vol 334(1), 310-317 (2010), see in particular page 312 lines 4-14], the potency of the compounds of the invention as inhibitors of human autotaxin enzyme may be measured (as IC50 values).
The FS-3 assay to identify ATX inhibitors was preformed as follows: 3 μl of standard inhibitor (referred to as PF-8380 in Gierse et al above) and test compounds were added to an assay plate. To each assay well, containing test compounds or standard, 24 μl of human Autotaxin enzyme (2 nM) was added. The assay plate was then centrifuged at 1000 rpm for 1 minute and allowed to incubate at 37° C. for 30 minutes. Following the incubation period each plate was read in a fluorescence plate reader (Spectra Max M5: excitation: 494 nm and emission: 520 nm) and IC50 values were derived from inhibition of FS-3 fluorescence (as described above).
`COc1ccc(C(CCO)Nc2ccc(C(=O)NCc3cc(F)ccc3F)nn2)cc1` (centres unmarked) [Example 1, N-(2,5-difluorobenzyl)-6-{[3-hydroxy-1-(4-methoxy-phenyl)propyl]amino}pyridazine-3-carboxamide] was tested, and the IC50 was 14 nM. In the case of `COc1ccc(C(CCO)Nc2ccc(C(=O)NCc3cc(F)cc(F)c3)nn2)cc1` (centres unmarked) [Example 2, N-(3,5-difluorobenzyl)-6-{[3-hydroxy-1-(4-methoxy-phenyl)propyl]amino}pyridazine-3-carboxamide], the IC50 is reported as 24.9 nM. `Cc1noc(NC(=O)c2ccc(NC(CO)Cc3ccc(Cl)cc3)nn2)c1C` (centres unmarked) [Example 3, 6-{[1-(4-chlorobenzyl)-2-hydroxyethyl]amino}-N-(3,4-dimethylisoxazol-5-yl)pyridazine-3-carboxamide] showed an IC50 of 37.6 nM. Work on `CCN(Cc1ccncc1)c1ccc(C(=O)Nc2cc(-c3ccccc3)nn2C)nn1` [Example 4, 6-[ethyl(pyridin-4-ylmethyl)amino]-N-(1-methyl-3-phenyl-1H-pyrazol-5-yl)pyrid azine-3-carboxamide] yielded an IC50 of 65.2 nM. `COc1ccc(C(CCO)Nc2ccc(C(=O)Nc3onc(C)c3C)nn2)cc1` (centres unmarked) [Example 5, N-(3,4-dimethylisoxazol-5-yl)-6-{[3-hydroxy-1-(4-methoxyphenyl)propyl]amino}pyridazine-3-carboxamide] showed an IC50 of 69.5 nM. Work on `O=C(NCCN1CCNC1=O)c1ccc(NC2Cc3ccccc3C2)nn1` [Example 6, 6-(2,3-dihydro-1H-inden-2-ylamino)-N-[2-(2-oxoimidazolidin-1-yl)ethyl]pyridazine-3-carboxamide] yielded an IC50 of 73.8 nM. Work on `O=C(NCCCn1ccnc1)c1ccc(NCc2cc(Cl)cc(Cl)c2)nn1` [Example 7, 6-[(3,5-dichlorobenzyl)amino]-N-[3-(1H-imidazol-1-yl)propyl]pyridazine-3-carboxamide] yielded an IC50 of 89.2 nM. `Cc1noc(NC(=O)c2ccc(NC(C)c3ccc(Cl)cc3)nn2)c1C` (centres unmarked) [Example 8, 6-{[1-(4-chlorophenyl)ethyl]amino}-N-(3,4-dimethyl-isoxazol-5-yl)pyridazine-3-carboxamide] showed an IC50 of 100 nM. Molecule `Cc1ccc(F)c(CNc2ccc(C(=O)Nc3onc(C)c3C)nn2)c1F` [Example 9, 6-[(2,6-difluoro-3-methylbenzyl)amino]-N-(3,4-dimethylisoxazol-5-yl)pyridazine-3-carboxamide] has an IC50 of 103 nM. `Cc1noc(NC(=O)c2ccc(NCc3cccc4ccccc34)nn2)c1C` [Example 10, N-(3,4-dimethylisoxazol-5-yl)-6-[(1-naphthylmethyl)-amino]pyridazine-3-carboxamide] gave an IC50 of 114 nM. Work on `Cc1noc(NC(=O)c2ccc(NCc3cccc(Cl)c3Cl)nn2)c1C` [Example 11, 6-[(2,3-dichlorobenzyl)amino]-N-(3,4-dimethyl-isoxazol-5-yl)pyridazine-3-carboxamide] yielded an IC50 of 248 nM. With `Cc1noc(NC(=O)c2ccc(NC3CCN(Cc4ccccc4)C3)nn2)c1C` (centres unmarked) [Example 12, 6-[(1-benzylpyrrolidin-3-yl)amino]-N-(3,4-dimethyl-isoxazol-5-yl)pyridazine-3-carboxamide] the IC50 was 357 nM. In the case of `Cc1cc(NC(=O)c2ccc(NC(CO)Cc3ccc(Cl)cc3)nn2)n(C)n1` (centres unmarked) [Example 13, 6-{[1-(4-chlorobenzyl)-2-hydroxyethyl]amino}-N-(1,3-dimethyl-1H-pyrazol-5-yl)pyridazine-3-carboxamide], the IC50 is reported as 507 nM. For `Cc1onc(-c2ccccc2)c1CNc1ccc(C(=O)NCc2cc(F)cc(F)c2)nn1` [Example 14, N-(3,5-difluorobenzyl)-6-{[(5-methyl-3-phenylisoxazol-4-yl)methyl]amino}pyridazine-3-carboxamide], the IC50 was 646 nM.
